Measured values from patent US20150252047A1, “SUBSTITUTED INDAZOL-PYRROLOPYRIMIDINES USEFUL IN THE TREATMENT OF HYPERPROLIFERATIVE DISEASES” (BAYER PHARMA AKTIENGESELLSCHAFT, priority 2012, published 2015).

Biological target: T1, human full-length MKNK1 (Homo sapiens, UniProt Q9BUB5, T385D)
T1 construct: GST (N); purchased Carna Biosciences 02-145; host or cells: insect cells (baculovirus expression system)
Experiment: MKNK1 kinase high ATP assay (TR-FRET)
Format: biochemical
Details: high ATP (2 mM final), 15 min preincubation with enzyme, 30 min reaction at 22° C.
Method: MKNK1-inhibitory activity at high ATP of compounds of the present invention after their preincubation with MKNK1 was quantified employing the TR-FRET-based MKNK1 high ATP assay as described in the following paragraphs.
A recombinant fusion protein of Glutathione-S-Transferase (GST, N-terminally) and human full-length MKNK1 (amino acids 1-424 and T344D of accession number BAA 19885.1), expressed in insect cells using baculovirus expression system and purified via glutathione sepharose affinity chromatography, was purchased from Carna Biosciences (product no 02-145) and used as enzyme. As substrate for the kinase reaction the biotinylated peptide biotin-Ahx-IKKRKLTRRKSLKG (C-terminus in amide form) was used, which can be purchased e.g. from the company Biosyntan (Berlin-Buch, Germany).
For the assay 50 nL of a 100 fold concentrated solution of the test compound in DMSO was pipetted into a black low volume 384 well microtiter plate (Greiner Bio-One, Frickenhausen, Germany), 2 μL of a solution of MKNK1 in aqueous assay buffer [50 mM HEPES pH 7.5, 5 mM MgCl2, 1.0 mM dithiothreitol, 0.005% (v/v) Nonidet-P40 (Sigma)] was added and the mixture was incubated for 15 min at 22° C. to allow pre-binding of the test compounds to the enzyme before the start of the kinase reaction. Then the kinase reaction was started by the addition of 3 μL of a solution of adenosine-tri-phosphate (ATP, 3.3 mM=>final conc. in the 5 μL assay volume is 2 mM) and substrate (0.1 μM=>final conc. in the 5 μL assay volume is 0.06 μM) in assay buffer and the resulting mixture was incubated for a reaction time of 30 min at 22° C. The concentration of MKNK1 was adjusted depending of the activity of the enzyme lot and was chosen appropriate to have the assay in the linear range, typical concentrations were in the range of 0.003 μg/mL. The reaction was stopped by the addition of 5 μL of a solution of TR-FRET detection reagents (5 nM streptavidine-XL665 [Cisbio Bioassays, Codolet, France] and 1 nM anti-ribosomal protein S6 (pSer236)-antibody from Invitrogen [#44921G] and 1 nM LANCE EU-W1024 Labeled ProteinG [Perkin-Elmer, product no. AD0071]) in an aqueous EDTA-solution (100 mM EDTA, 0.1% (w/v) bovine serum albumin in 50 mM HEPES pH 7.5).
The resulting mixture was incubated for 1 h at 22° C. to allow the formation of complex between the phosphorylated biotinylated peptide and the detection reagents. Subsequently the amount of phosphorylated substrate was evaluated by measurement of the resonance energy transfer from the Eu-chelate to the streptavidine-XL. Therefore, the fluorescence emissions at 620 nm and 665 nm after excitation at 350 nm were measured in a TR-FRET reader, e.g. a Rubystar (BMG Labtechnologies, Offenburg, Germany) or a Viewlux (Perkin-Elmer). The ratio of the emissions at 665 nm and at […] was taken as the measure for the amount of phosphorylated substrate. The data were normalised (enzyme reaction without inhibitor=0% inhibition, all other assay components but no enzyme=100% inhibition).

T1 sequence (Q9BUB5 1-424 isoform Q9BUB5-2 T344D): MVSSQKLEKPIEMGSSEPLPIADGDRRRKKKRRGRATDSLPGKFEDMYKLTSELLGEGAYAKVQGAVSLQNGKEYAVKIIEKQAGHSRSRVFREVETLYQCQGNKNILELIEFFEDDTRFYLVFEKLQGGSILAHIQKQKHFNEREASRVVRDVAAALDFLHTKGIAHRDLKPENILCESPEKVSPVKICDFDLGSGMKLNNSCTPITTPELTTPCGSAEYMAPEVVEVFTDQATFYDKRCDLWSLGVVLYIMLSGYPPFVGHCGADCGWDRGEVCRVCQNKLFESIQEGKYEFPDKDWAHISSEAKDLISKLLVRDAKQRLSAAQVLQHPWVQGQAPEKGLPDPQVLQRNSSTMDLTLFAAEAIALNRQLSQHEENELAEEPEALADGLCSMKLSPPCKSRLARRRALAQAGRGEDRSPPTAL

| IC50 [nM] | SMILES |
| --- | --- |
| 4 | COc1cc2[nH]ncc2cc1Nc1ncnc2[nH]c(C(=O)N3C[C@H]4C[C@@H]3CO4)c(Br)c12 [Example 65, {5-Bromo-4-[(6-methoxy-1H-indazol-5-yl)amino]-7H-pyrrolo[2,3-d]pyrimidin-6-yl}[(1R,4R)-2-oxa-5-azabicyclo[2.2.1]hept-5-yl]methanone] |
| 2 | COc1cc2[nH]ncc2cc1Nc1ncnc2[nH]c(C(=O)N3CCC3)c(Br)c12 [Example 66, Azetidin-1-yl{5-bromo-4-[(6-methoxy-1H-indazol-5-yl)amino]-7H-pyrrolo[2,3-d]pyrimidin-6-yl}methanone] |
| 3 | COc1cc2[nH]ncc2cc1Nc1ncnc2[nH]c(C(=O)N3CCOC[C@H]3C)c(Br)c12 [Example 67, {5-Bromo-4-[(6-methoxy-1H-indazol-5-yl)amino]-7H-pyrrolo[2,3-d]pyrimidin-6-yl}[(3R)-3-methylmorpholin-4-yl]methanone] |
| 14 | COc1cc2[nH]ncc2cc1Nc1ncnc2[nH]c(C(=O)NCC(=O)N(C)C)c(Br)c12 [Example 68, 5-Bromo-N-[2-(dimethylamino)-2-oxoethyl]-4-[(6-methoxy-1H-indazol-5-yl)amino]-7H-pyrrolo[2,3-d]pyrimidine-6-carboxamide] |
